Results on 63 molecules are retold here after a melting point compilation (Tetko et al.; mined from patent text by program, amines drawn as free bases though some values may be those of a salt).

In general, melting point refers to the temperature, or range, at which the solid turns liquid. In turn, `Cc1ccc(C2=NNC(=O)CC2)c(OCC(O)CNC(C)(C)C)c1` (stereo not drawn) displayed a melting point of 130 °C.

As to `CN1CCC(c2c[nH]c3ccc(OS(=O)(=O)c4ccccc4F)cc23)CC1`, the melting point lay within 180 to 182 °C. `CC(C)Oc1ccc(C(=O)N/C(=C\c2ccc(OC(F)(F)F)cc2)C(=O)NCCO)cc1` showed a melting point of 142 to 146 °C. In the case of `O=C(O)c1cc([N+](=O)[O-])c(-c2ccncc2)[nH]c1=O`, the melting point was greater than 300 °C. Take `CNCc1ccc(C2CCN(c3cc4c(cc3F)c(=O)c(C(=O)O)cn4C3CC3)C2)cc1` (stereo not drawn): the melting point lay within 235 to 237 °C. Molecule `CCN1c2ncc(CCc3ccc(NS(C)(=O)=O)cc3)cc2C(=O)N(C)c2ccc(Cl)nc21` gave a melting point of 199 to 204 °C. Regarding `CCOCc1cc(O)cc2cc(-c3ccc(O)cc3)oc12`, the melting point lay in the range of 166 to 168 °C.

`CC(=O)OCC1OC(n2c(=O)sc3c(Cl)nc(Cl)nc32)C(OC(C)=O)C1OC(C)=O` (stereo not drawn) yielded a melting point of 125 to 126 °C. As to `Cc1nc(C(C)(C)C)c[nH]1`, the melting point was 155 to 156 °C. Next, `NC(=O)CN1CC2CCCCCC2C1=O` (stereo not drawn): 145 to 147 °C. With `Cc1cc(OCC(=O)O)c(C(C)C)cc1SCc1sc(-c2ccc(C(F)(F)F)cc2)nc1C`, the melting point is 168 to 171 °C.

In the case of `CC(C)n1cnc2c(NCc3ccccc3)nc(Cl)nc21`, the melting point is 181 to 182 °C. `COc1ccnc(N2CCN(C(=O)c3cccs3)CC2)n1` came in with a melting point of 143 to 145 °C. As for `O=[N+]([O-])c1ccccc1SNc1nc(OCc2ccc(F)cc2)ncc1F`, the melting point was 184 °C. Next, `O=C(Nc1cc(Cl)c([N+](=O)[O-])cc1O)C(=O)Nc1cc(Cl)c([N+](=O)[O-])cc1O`: 302 °C; `C=CC1=C(C(=O)OCC)C(C(F)(F)F)Oc2ccc(Cl)cc21` (stereo not drawn): 51.9 to 53.2 °C; `COc1ccc(N2CCN(n3ccnc3)CC2)cc1`: 159 °C. `O=C(OCCOc1ccccc1)c1sc(Cl)nc1C(F)(F)F` returned a melting point of 70 to 72 °C. `Clc1cc(C(Cl)(Cl)Cl)c(Cl)cc1C(Cl)(Cl)Cl` yielded a melting point of 202 to 203 °C. The molecule `N#CCC(=O)N[C@H]1CC[C@H](CCN2CCN(c3nccc4c3CCO4)CC2)CC1` had a melting point of 188 °C.

Turning to `COc1ccc(-n2c(=O)c3c(N4CCN(C)CC4)cc(Cl)cc3n(Cc3ccccc3)c2=O)cc1`, the melting point lay in the range of 155 to 158 °C. In the case of `O=C(NC1CCN(Cc2ccccc2)CC1)c1n[nH]c2ccccc12`, the melting point lay within 198 to 200 °C. Next, `Cc1c(-c2ccc(OS(=O)(=O)NN(C)C)cc2)[nH]c2nccnc12`: 188 °C. In turn, `COc1cc2cc(CO)c(CO)c(-c3ccncc3)c2cc1OC` registered a melting point of 118 to 120 °C.

With `COc1cc2c(cc1Br)C(=CNc1ccc(CN3CCCCC3)cc1)C(=O)NC2=O`, the melting point lay in the range of 264 to 267 °C.

For `O=C(O)Cc1ccc2c(c1)Cc1cccnc1O2`, the melting point was 218 °C. For `Cc1cccc(C)c1Oc1ccc2ccc(N)nc2n1`, the melting point is 218 °C. Next, `CC12CCC(=O)C=C1N(C(C)(C)C)CC1C2CCC2(CC(=O)O)C(C(=O)O)CCC12` (stereo not drawn): 215 to 216 °C; `CCCCc1nc(=O)c2cc(C#C[Si](C)(C)C)c(F)cc2[nH]1`: 192 °C. `CCC(COC)NC(=O)C(Cc1ccc(OCc2ccccc2)cc1)NC(=O)C(CC(C)C)N(C)CCC(C)C` (stereo not drawn): the melting point was in the range of 83 to 85 °C. Next, `c1ccc(COc2cccc3cc(C4=NCCS4)[nH]c23)cc1`: 129 to 130 °C; `COC(C)(C)CNCc1cnc2c(C)c(NC(=O)c3ccc(OCC4CCOC4)cc3)ccc2c1` (stereo not drawn): 137 °C. With `O=C(CN1CCC(Cc2ccc(F)cc2)CC1)Nc1ccc2c(c1)OCC(=O)N2`, the melting point fell in the range of 209 to 211 °C. Regarding `CC(=O)c1cc2cc(OCC(=O)O)c(Cl)c(Cl)c2s1`, the melting point lay in the range of 203 to 205 °C. Regarding `CN1Cc2cccnc2N(c2ccccc2)C1=O`, the melting point is 172 to 173 °C. Molecule `CCOC(=O)c1cn(-c2cc(OC)c(F)cc2F)c2c(C)c(N)c(F)cc2c1=O` displayed a melting point of 232 to 235 °C. The figure for `O=C(NC(=O)c1ccc([N+](=O)[O-])cc1Cl)Nc1ccc(Cl)c(Cl)c1` is 280 °C; for `CNC(=O)C1CN(C(c2ccccc2)c2ccccc2)C1` it is 103 to 107 °C; for `CCOC(=O)C1=C(C)NC(C)=C(C(=O)OCC)C1c1ccccc1Cl` it is 120 to 121 °C. For `CCCCCCCCCCCCCCCCOc1cc(NS(=O)(=O)c2cc(N)ccc2OCCOC)c(O)cc1C`, the melting point was in the range of 142 to 144 °C. `CC(c1cccc2c1Sc1c(O[Si](c3ccccc3)(c3ccccc3)C(C)(C)C)cccc1N2C)N1C(=O)c2ccccc2C1=O` (stereo not drawn): the melting point was in the range of 182 to 184 °C.

Regarding `COCCN(CCOC)C(=O)c1cccc(NC(=O)Oc2ccccc2)c1`, the melting point was in the range of 116 to 118 °C. As to `O=C(Cc1ccccc1)c1ccc(Cl)c(Cl)c1`, the melting point is 84 to 85 °C. For the molecule `CCOC(=O)C=Cc1cncc(OCc2ccccc2)c1`, the melting point fell in the range of 76 to 77 °C. `O=C(Cn1c(-c2ccc(Cl)cc2)nc2cccnc21)NCc1ccccc1` registered a melting point of 200 °C. `CCOC(=O)c1c(O)c2cccnc2n(Cc2ccccc2)c1=O` registered a melting point of 143 °C. Turning to `CCOC(=O)C1=C(N=CN(C)C)NC(C)=C(C(=O)OC(C)C)C1c1ccccc1Cl` (stereo not drawn), the melting point stood at 138 °C. Take `CC(=O)C1(Nc2ccccc2)CCN(C(C)C)CC1`: the melting point worked out at 107 °C. With `COc1cccc2c(=O)c(C(C)=O)c[nH]c12`, the melting point was in the range of 287 to 289 °C. `COC(=O)C1(N(O)C(=O)Cc2c(C)cc(Cl)cc2C)CCN(OC)CC1` showed a melting point of 228 to 231 °C. In turn, `CCOC(=O)c1[nH]c2ccccc2c1CN(Cc1cc(C(F)(F)F)cc(C(F)(F)F)c1)c1nnn(C)n1` yielded a melting point of 83 °C. Turning to `CCC[C@@H]1COC(=O)N1c1nc(-c2ccc(C#N)cc2)cs1`, the melting point lay in the range of 131 to 133 °C. As to `Nc1cc(-n2ncc(Cl)c(Cl)c2=O)c(F)cc1Cl`, the melting point came out at 186 °C. Consider `CC(c1ccc(CCn2cnc3cc(-c4ccc(Cl)cc4)sc3c2=O)cc1)N1CCCCC1` (stereo not drawn), for which the melting point fell in the range of 175 to 179 °C.

Take `CC(C)(C)c1cc(OCc2cccc(C(=O)O)c2)cc(C(C)(C)C)c1`: the melting point lay in the range of 167 to 169 °C. The figure for `COC1(c2ccc(Sc3ccc4c(c3)CCC(=O)N4C)s2)CCOCC1` is 84 to 86 °C. Next, `CN1CCCC1=NCCSc1c[nH]c2ccccc12`: 144 to 146 °C. The figure for `c1ccc2c(c1)OCC(CCc1ncc[nH]1)O2` (stereo not drawn) is 159 to 160 °C; for `Clc1ccc2sc(Cl)nc2c1` it is 70 °C.

Turning to `NS(=O)(=O)c1cc(C(=O)O)cc(NCCc2ccncc2)c1-c1ccccc1`, the melting point was 216 to 218 °C. The figure for `COc1cc2c(Nc3ccc(Cl)cc3F)ncnc2cc1OCCCNC(=O)OCC(C)C` is 136 to 137 °C.

For `CS(=O)(=O)ON1C(=O)CCC1=O`, the melting point lay within 148 to 150 °C. In turn, `Cc1c(C(=O)Nc2ccc(OCC(C)(C)C)c(C#N)c2)cnn1-c1cccc(C(F)(F)F)c1` showed a melting point of 116 to 118 °C.
